How the values were obtained:
[1] = system: MCF-7 vector control cells; test: Anchorage-independent soft agar colony formation, MCF-7 vector control cells; type: cell-based, human; settings: MCF-7 vector control cells; 1 nM estradiol or 100 nM 4-OH-Tam; 14 days
Procedure: Cells were starved for 2 days in PRF MEM (InVitrogen) supplemented with 5% fetal bovine serum (FBS, Summit Biotechnology, Fort Collins, Colo.), 6 ng/ml insulin, 200 units/ml penicillin, and 200 μg/ml streptomycin. Soft agar assays were performed in sixwell plates. Into each well, 1.5 ml of prewarmed (50° C.) 0.7% SeaPlaque agarose (FMC, Rockland, Me.) was added and dissolved in PRF MEM supplemented with 5% charcoal stripped FBS (Summit, Fort Collins, Colo.) to serve as the bottom layer, and allowed to solidify at 4° C. until to use. 0.5×10^4 cells as a single cell suspension were suspended in prewarmed (37° C.) of the same media, 4 ml of 0.5% SeaPlaque agarose was then added, and this suspension then plated as the top layer by adding it dropwise to the solidified bottom layer plates. Plates were cooled for 2 hours, and then transferred to a 37° C. humidified incubator. Two days after plating, media containing control vehicle, 1 nM estradiol, 100 nM 4-OH-Tam, 100 nM OHT plus 10 nM ICI, or 100 nM OHT plus 20 nM […] was added to the top cell layer, and the appropriate media was replaced every two days. After 14 days, the colonies were fixed, and the colony number of colonies >50 cells from quadruplicate assays were then counted. The data shown is the mean colony number of four plates, and is representative of two independent experiments.
In pancreatic cells, ectopic expression of MKP3 is reported to result in a suppression of cell growth (Fuqua et al., 2003). Thus, the growth characteristics of the MCF-7 stable MKP3 transfectants under different hormonal conditions were investigated using anchorageindependent soft agar assay (FIG. 4B).

[2] = system: progesterone receptor (PR) A and B forms; test: Immunoblot of PR-A and PR-B in MCF-7 transfectants; type: cell-based, human
Procedure: (§1) Cells grown in 100 mm dishes were starved in phenol red-free (PRF), serum-free MEM (Specialty Media, Phillipsburg, N.J.) for 48 hours, and were then treated for 2 hours with vehicle (ethanol), estrogen (100 nM, 20), or OHT (100 nM). After treatment, cells were rinsed twice with ice-cold phosphate-buffered saline (PBS) and were then lysed immediately with 200 μl of cell lysis buffer (20 mM Tris HCl, pH 7.4, 150 mM NaCl, 1 mM B-glycerophosphate, 1 mM sodium orthovanadate, and 10% glycerol plus 1:100 proteinase inhibitor cocktail III) (Calbiochem, LaJolla, Calif.) per 100 mm tissue culture. The cell lysates were cleared by centrifugation at 16,100×g for 10 minutes at 4° C. Protein concentration was determined with the BCA Protein Assay kit (Pierce, Rockfold, Ill.) according to the manufacturer's directions. Equal amount of cell extracts were resolved under denaturing conditions by electrophoresis in 8-10% polyacrylamide gels containing sodium dodecyl sulfate (SDS-PAGE), and transferred to nitrocellulose membranes by electroblotting (Schleicher & Schuell, Keene, NH). After blocking of the transferred nitrocellulose membrane with TBST (20 mM Tris pH 7.6, 150 mM NaCl, 0.1% Tween-20) supplemented with 5% non-fat milk for 1 hour at room temperature, the membrane was incubated with primary antibodies either for 1 hour at room temperature (anti-ERα, 1:100 dilution; anti-AIB1, 1:100 dilution; anti-ERK2, 1:500 dilution; anti-Cyclin D1,1:500 dilution; anti-PR, C-19, 1:200 dilution; anti-p190, 1:1000 dilution; anti-V5, 1:5000 dilution), or overnight at 4° C. (anti-phospho MAPK, 1:1000 dilution; anti-phosphor-Ser118-ERα; 1:1000 dilution; MAPK p42/44, 1:1000 dilution), incubated with secondary antibodies for 1 hour at room temperature and then developed with Enhanced Chemiluminescence Reagents (Amersham Pharmacia Biotech, Piscataway, N.J.).
As expected with two hours of estrogen treatment, no induction of the two PR isoforms were detected in either the control vector (Con 1 and 2), or in the MKP3-transfected cells (FIG. 11A). […]

[3] = system: MCF-7-MKP3 xenografts; test: Xenograft growth of MCF-7 vector control and MKP3-transfected cells in athymic nude mice; type: in vivo
Procedure: MCF-7 vector control and MKP3-transfected cells were established as xenografts in ovariectomized 5- to 6-week-old BALB/c athymic nude mice (Harlan Sprague Dawley, Madison, Wis.) supplemented with 0.25-mg 21-day-release E2 pellets (Innovative Research, Sarasota, Fla.) by inoculating the mice subcutaneously with 5×10^6 cells, as described previously (Osborne et al., 1995). […] Tumor growth was assessed and tumor volumes were measured as described previously (Osborne et al., 1995). Mice were anesthetized with isoflurane before tumor removal; tumor tissues were kept at […] for later analyses. Animal care was in accordance with institutional guidelines.
To analyze the endocrine sensitivity of the MKP3-overexpressing cells in more detail in vivo, the ability of MCF-7-vector control 1 and MCF-7-MKP3-2 transfectants to form tumors in athymic mice was examined. Xenografts were established in ovariectomized mice supplemented with estrogen for 21 days. […] This was examined by fitting the data in an exponential growth model, and testing whether growth rates were different between the groups; the analyses were done separately for estrogen-treated (FIG. 4C, left panel) and Tam-treated animals (right panel). There was no difference in the estrogen-stimulated growth of the MCF-7-vector control and MKP3-overexpressing cells (P=0.52).

[4] = system: T47D cells overexpressing MTA2; test: Soft agar growth of MTA2-overexpressing T47D cells; type: cell-based, human; settings: MTA2.5 and 2.8 clones compared to vector alone transfected cells
Text: Metastasis associated protein 2 (MTA2), also known as PID, is contained in nucleosome remodeling and histone deacetylation (NuRD) complexes. Overexpression of MTA2 into T47D human breast cancer cells (MTA2.5 and 2.8 clones) increases the growth in soft agar in the absence of estrogen (C).

[5] = system: ERK 1,2 MAPK; test: Immunoblot of phospho-MAPK in MCF-7 transfectants; type: cell-based, human; settings: MKP3-overexpressing MCF-7 cells; 2 hours, 100 nM
Procedure: as §1
MAPK activity is tightly regulated by phosphorylation and dephosphorylation. MKP3 participates in a bidirectional regulatory loop with ERK2 MAPK, whereby ERK2 substrate binding is associated with catalytic activation of MKP3, and activated MKP3 negatively regulates pERK2 (Camps et al., 1998). […] Immunoblot analysis with anti-V5 was used to detect ectopic MKP3 expression in the two MKP3 transfectants (FIG. 5A, top panel). FIGS. 5B and 5C provide quantitation of results in FIG. 5A.

`C[C@]12CC[C@@H]3c4ccc(O)cc4CC[C@H]3[C@@H]1CC[C@@H]2O` [E2, 17β-Estradiol] was tested, and the “number of colonies in soft agar” value [1] was “increased the number of colonies”, the “induction of the two PR isoforms” value ([2]; two hours of treatment, control vector and MKP3-transfected cells) was “no induction” and the “tumor growth rate, MKP3-overexpressing versus vector control xenografts” value ([3]; estrogen-treated animals, P=0.52) was “no difference”. For the same compound, the “response of soft agar growth” value [4] was “unresponsive” and the “levels of pMAPK” value [5] was “lowest”.

`CC/C(=C(\c1ccccc1)c1ccc(OCCN(C)C)cc1)c1ccccc1` [Tam, tamoxifen] was tested, and the “number of colonies in soft agar” value [1] was “reduced the number of colonies”, the PR-B levels ([2]; two MKP3 transfectants, not observed in control MCF-7 transfectants) was “striking diminution” and the “tumor growth rate, MKP3-expressing versus vector control xenografts” value ([3]; estrogen withdrawal plus tamoxifen citrate 500 μg/animal s.c. 5 days/week, P=0.047) was “significantly increased”. For the same compound, the “response of soft agar growth” value [4] was “unresponsive” and the “levels of pMAPK” value [5] was “highest activation of MAPK”.

From US20070059720A9 (priority 2004, published 2007)
